Key:
Format in all cases: in vitro ADME
[1] = In vitro equilibrium dialysis (RED) protein binding, rat plasma; conditions: male, Sprague-Dawley, pH 7.4
Method: (§1) Cilnidipine was tested by PsychoGenics using standard methodology in 96-well RED (Rapid Equilibrium Dialysis) plates from Thermo Fisher Scientific. Male Sprague-Dawley plasma and brain were obtained from BioIVT to provide the required protein matrix. Plasma was used undiluted, and brain homogenate was diluted 3 to 1 with PBS, pH 7.4. The protein matrix was spiked with the test compound dissolved in DMSO to achieve a 10 μM solution. Three chambers were used to allow for triplicate measures with a final DMSO concentration of <1% in each. The dialysate compartments of the 96-well dialysis chamber was loaded with PBS, pH 7.4 and the sample side was loaded with equal volume of the spiked protein matrix. The dialysis plate was then sealed and incubated at 37° C. for 4 h. After the incubation, samples were taken from each compartment. The buffer side was diluted with the appropriate matrix (plasma or brain homogenate) and the protein matrix side diluted with phosphate buffer. Resultant samples were then crashed in acetonitrile, centrifuged and the supernatant mixed with an aqueous solution providing samples for UPLC-MS/MS analysis. […] This control sample served as the basis for the determination of recovery. […] Samples were analyzed by UPLC-MS/MS using […] (MRM). The UPLC conditions consisted of a binary LC pump with autosampler, an InertSustain column (C18 column, 2.1×50 mm), utilizing gradient elution. The peak areas of the test compound in the buffer and test samples were used to calculate percent binding and recovery according to the following formulas: […]
(§2) The recovery determination serves as an indicator of reliability of the calculated protein binding value.
(§3) The characterization of protein binding is defined using the following ranges:
(§4) • Low 0 to 50% • Moderate 50 to 90% • High 90 to 99% • Very High>99%

[2] = In vitro equilibrium dialysis (RED) protein binding, rat brain homogenate; conditions: male, Sprague-Dawley, rat, pH 7.4
Method: as §1, §2, §3, §4

rat plasma proteins = assay: In vitro equilibrium dialysis (RED) protein binding, rat plasma; conditions: male, Sprague-Dawley, plasma, 4 h, 10 μM, pH 7.4
Method: as §1, §2, §3, §4

[3] = system: rat brain homogenate proteins; assay: In vitro equilibrium dialysis (RED) protein binding, rat brain homogenate; conditions: male, Sprague-Dawley, rat, brain homogenate, 4 h, 10 μM, pH 7.4
Method: as §1, §2, §3, §4

## C=C[C@H]1C[N@@]2CC[C@H]1C[C@@H]2[C@@H](O)c1ccnc2ccc(OC)cc12 [quinidine]
[1]
  recovery at 4 h, 10 μM: 93.7 ± 3.89%
[2]
  recovery at 4 h, 10 μM: 125 ± 1.54%

## CC(=O)CC(c1ccccc1)c1c(O)c2ccccc2oc1=O (centres unmarked) [warfarin]
[1]
  recovery at 4 h, 10 μM: 112.7 ± 0.76%
[1]; plasma
  fraction unbound at 4 h, 10 μM: 0.008
Rat plasma proteins
  Unbound (%): 0.8 ± 0.02%
[2]; brain homogenate
  fraction unbound at 4 h, 10 μM: 0.827
[2]
  recovery at 4 h, 10 μM: 132 ± 0.57%
[3]
  Unbound (%): 82.7 ± 4.98%

— patent publication US20240358693A1, “METHODS OF TREATING PAIN” (Aisa Pharma, Inc., priority 2023, published 2024)
